Reference: article PMC9238401, “Peptide Conjugates Derived from flg15, Pep13, and PIP1 That Are Active against Plant-Pathogenic Bacteria and Trigger Plant Defense Responses” (Applied and Environmental Microbiology, 2022)
Non-standard residues stand in square brackets, D forms with d. Residues, ends and D or L forms follow the SMILES beside them. *: point of attachment. Butyryl = CCCC(=O)*

Columns and labels:
[1] = tested on: Erwinia amylovora PMV6076; test: In vitro growth inhibition (MIC); assay type: cell-based; conditions: TSB, 25°C, 48 h, OD 600 nm (Bioscreen C), three replicates, experiment repeated twice; MIC = lowest concentration with no growth, given as range
Summary of the method: (§1)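 Strains were grown 24 h at 25°C on agar, then suspended in sterile water at 10^8 CFU mL^−1 and mixed with peptide dilutions in Trypticase soy broth. Plates were incubated at 25°C with shaking and OD600 read hourly for 48 h. MIC is the lowest concentration with no growth at 48 h.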

[2] = tested on: Pseudomonas syringae pv. actinidiae Psa3700.1.1; test: In vitro growth inhibition (MIC); assay type: cell-based; conditions: TSB, 25°C, 48 h, OD 600 nm (Bioscreen C), three replicates, experiment repeated twice; MIC given as range
Summary of the method: as §1

[3] = tested on: Pseudomonas syringae pv. syringae EPS94; test: In vitro growth inhibition (MIC); assay type: cell-based; conditions: TSB, 25°C, 48 h, OD 600 nm (Bioscreen C), three replicates, experiment repeated twice; MIC given as range
Summary of the method: as §1

[4] = tested on: Xanthomonas arboricola pv. pruni CFBP5563; test: In vitro growth inhibition (MIC); assay type: cell-based; conditions: TSB, 25°C, 48 h, OD 600 nm (Bioscreen C), three replicates, experiment repeated twice; MIC given as range
Summary of the method: as §1

[5] = tested on: Xanthomonas fragariae Xf349-9A; test: In vitro growth inhibition (MIC); assay type: cell-based; conditions: TSB, 25°C, 48 h, OD 600 nm (Bioscreen C), three replicates, experiment repeated twice; MIC given as range
Summary of the method: as §1

[6] = tested on: Xanthomonas axonopodis pv. vesicatoria 2133-2; conditions: TSB, 25°C, 48 h, OD 600 nm (Bioscreen C), three replicates, experiment repeated twice; MIC given as range
Summary of the method: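 Bacteria grown 24 h (48 h for Xanthomonas axonopodis, X. fragariae) at 25°C, suspended at 10^8 CFU mL^−1, mixed with peptide dilutions in TSB.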

Compound | MIC, Ea [1] | MIC, Psa [2] | MIC, Pss [3] | MIC, Xap [4] | MIC, Xf [5] | MIC, Xav [6]
CCCC(=O)NCCCC[C@H](NC(=O)[C@H](CCCCN)NC(=O)[C@H](CC(C)C)NC(=O)[C@@H](NC(=O)[C@H](CCCCN)NC(=O)[C@H](CCCCN)NC(=O)[C@@H](Cc1ccccc1)NC(=O)[C@H](CC(C)C)NC(=O)[C@H](CCCCN)NC(=O)[C@H](CCCCN)NC(=O)[C@H](Cc1c[nH]cn1)NC(=O)[C@@H](NC(=O)[C@H](Cc1c[nH]cn1)NC(=O)[C@@H](NC(=O)CNC(=O)[C@H](Cc1ccc(O)cc1)NC(C)=O)[C@@H](C)CC)[C@@H](C)O)[C@@H](C)CC)C(=O)N[C@@H](CC(C)C)C(N)=O [PIP1-BP475] (Ac-YGIHTHKKL[dF]KKILKK(Butyryl)L-NH2) | 3.1 to 6.2 µM | 1.6 to 3.1 µM | 3.1 to 6.2 µM | < 0.8 µM | 12.5 to 25 µM | < 0.8 µM
CCCC(=O)NCCCC[C@H](NC(=O)[C@H](CCCCN)NC(=O)[C@H](CC(C)C)NC(=O)[C@@H](NC(=O)[C@H](CCCCN)NC(=O)[C@H](CCCCN)NC(=O)[C@@H](Cc1ccccc1)NC(=O)[C@H](CC(C)C)NC(=O)[C@H](CCCCN)NC(=O)[C@H](CCCCN)NC(=O)[C@H](C)NC(=O)[C@@H](NC(=O)[C@H](CCC(N)=O)NC(=O)[C@H](CC(C)C)NC(=O)CNC(=O)[C@H](C)NC(=O)[C@H](C)NC(=O)[C@H](CC(=O)O)NC(=O)[C@H](CC(=O)O)NC(=O)[C@H](CCCCN)NC(=O)[C@H](C)NC(=O)[C@H](CO)NC(=O)[C@H](CC(N)=O)NC(=O)[C@@H](NC(=O)[C@H](CCCNC(=N)N)NC(C)=O)[C@@H](C)CC)[C@@H](C)CC)[C@@H](C)CC)C(=O)N[C@@H](CC(C)C)C(N)=O [flg15-BP475] (Ac-RINSAKDDAAGLQIAKKL[dF]KKILKK(Butyryl)L-NH2) | 3.1 to 6.2 µM | 3.1 to 6.2 µM | 12.5 to 25 µM | < 0.8 µM | 6.2 to 12.5 µM | < 0.8 µM
RINSAKDDAAGLQIA-OH [flg15] | > 100 µM | > 100 µM | > 100 µM | > 100 µM | > 100 µM | > 100 µM
YGIHTH-NH2 [PIP1] | > 50 µM | > 50 µM | > 50 µM | > 50 µM | > 50 µM | > 50 µM
